In patent US20230172874A1, “USE OF CANNABIDIOL FOR THE TREATMENT OF INSOMNIA ASSOCIATED TO PAIN” (priority 2021, published 2023):
Entries after “also recorded” stand apart in the source; their conditions may differ.

Tested on: neuropathic rats
Test: EEG/EMG recording of wakefulness, NREM and REM sleep in neuropathic rats
Assay type: in vivo, male Wistar rats
Protocol: Animals. The experiments were performed on male Wistar rats weighing 250 g (six weeks). All animals were housed in standardized animal facilities under a 12 h light/dark cycle (lights on at 7 AM) with ad libitum access to food and water. All surgeries and experimental procedures were performed during the light cycle. Experimental protocols were approved by the Animal Ethics Committee of the local institutional committee for animal use and care (McGill University, Qc, Canada). These protocols follow ethical guidelines for investigation of experimental pain in conscious animals of the IASP, the Canadian Institute of Health Research guidelines for animal care and scientific use.
Spared nerve injury (SNI). SNI was performed according to the method of Decosterd and Woolf^35. Rats were deeply anaesthetized with isofluorane (5%), anaesthesia was confirmed by the absence of a nociceptive reflex reaction to a paw pinch. The sciatic nerve was exposed at mid-thigh level distal to the trifurcation and freed of connective tissue; the three peripheral branches (sural, common peroneal, and tibial nerves) of the sciatic nerve were exposed without stretching nerve structures. Both tibial and common peroneal nerves were ligated and transected together. Carprofen (5 mg/kg) was administrated subcutaneously pre-surgery as well as three days every 24 hours post-surgery as analgesic. After SNI, each rat was housed in its home cage for 15 days until the neuropathy is developed.
EEG/EMG Implantation. Neuropathic rats (10 days after surgery) and naïve rats were placed in a stereotaxic frame following isoflurane-induced anesthesia (5%). Anaesthesia was confirmed by the absence of a nociceptive reflex reaction to a paw pinch. For EEG monitoring, three stainless-steel epidural electrodes were positioned through 1.5 mm burr holes: one over the parietal cortex on each side, and the third (as a reference) in the right prefrontal cortex. In rats, their respective locations relative to bregma were −2 mm anteroposterior (AP) and −3 mm lateral (L), −7 mm AP and −3 mm L, and −4.5 mm AP and +3 mm L, according to Paxinos and Watson. For EMG monitoring, three flexible stainless-steel wire electrodes, silicon insulation removed at the terminal 3-4 mm, were implanted into the neck muscles (two bilaterally and one in the middle). Wires were fused with the electrodes and the connectors were fixed to the skull with dental acrylic (Coltene/Whaledent). Carprofen (10mg/kg) was administrated subcutaneously pre-surgery as well as three days every 24 hours post-surgically as analgesic. Each rat was single-caged post-surgery and allowed to recover for the next 5 days^13. 24 hours after surgery, the rats were placed in the recording chamber and connected to a flexible 6-flat wire (3M Scotchflex™) in a freely moving manner for several hours during the subsequent 5 days. No recordings were performed, but tolerance to the cable and sleep behavior were observed. All rats from a home cage were also grouped for one hour each day for socialization to circumvent anxious-depressive-like behavior induced by social isolation^13.
Study design for EEG and EMG assessment. […] […] In another cohort of rats rimonabant (1 mg/kg) was also injected i.p. at 6 A.M. in neuropathic rats.
EEG and EMG recording. Six days after surgery (16 days post-SNI), mechanical allodynia was assessed via von Frey test, and EEG/EMG was recorded for a period of 6 h (from 6 AM to 12 PM). The treatments (described below) were performed at 6:00 A.M., right after the recording had started. […] Consecutive 10 s epochs were subjected to a fast Fourier transform (FFT), and EEG power spectra density was computed in the frequency range of 0-64 Hz^13.
Analysis of EEG and EMG data. The three classical vigilance states as described in the rat were discriminated on the basis of the cortical EEG and neck EMG activities. […]

[1] = 6 h EEG/EMG, i.p., CBD 20 mg/kg, WAY 100635 2 mg/kg
[2] = NP rats, 6 h EEG/EMG, i.p., CBD 20 mg/kg, rimonabant 1 mg/kg

Compound: C=C(C)[C@@H]1CCC(C)=C[C@H]1c1c(O)cc(CCCCC)cc1O [CBD, 2-[(1R,6R)-3-methyl-6-prop-1-en-2-ylcyclohex-2-en-1-yl]-5-pentylbenzene-1,3-diol]
- total NREM sleep, relative to NP rats treated with vehicle [1]: able to reverse NREM sleep impairments; also recorded: restored NREM sleep
- total time of wakefulness, relative to NP rats treated with vehicle [1]: decrease in the amount of time spent in wakefulness; also recorded: decreased wakefulness
- REM sleep (total time), relative to NP rats treated with vehicle (6 h EEG/EMG, i.p., CBD 20 mg/kg, WAY 100635 2 mg/kg, rimonabant 1 mg/kg): restored the normal REM sleep
- NREM sleep, relative to naïve animals treated with vehicle (NP rats, 6 h EEG/EMG, CBD 20 mg/kg i.p.): no difference was detected
- REM sleep, relative to naïve animals treated with vehicle [2]: no difference was detected
- wakefulness, relative to naïve animals treated with vehicle [2]: no difference was detected
- reversal of sleep perturbations induced by neuropathic pain (sleep-wake cycle) (NP rats, i.p., CBD 20 mg/kg, rimonabant 1 mg/kg): Reverses the Sleep Perturbations; also recorded: restored the normal sleep-wake cycle; also recorded: restores the impaired sleep in a dose-dependent manner
